Data from patent US6608086B2, “Dihydropyridines and new uses thereof” (Synaptic Pharmaceutical Corporation, priority 1993, dated 2003).
Structures can show the parent of a compound that is named as a salt. Where two headings read alike, the source gives them in different places.

Columns and labels:
[1] = molecular target: T1, α1C Human Adrenergic Receptor (Homo sapiens, UniProt P35348); assay: Radioligand binding, [3H]prazosin, cloned human α1C adrenergic receptor
T1 construct: The entire coding region of α1C (1401 bp); expressed in transfected cells
T1 sequence (P35348 1-466): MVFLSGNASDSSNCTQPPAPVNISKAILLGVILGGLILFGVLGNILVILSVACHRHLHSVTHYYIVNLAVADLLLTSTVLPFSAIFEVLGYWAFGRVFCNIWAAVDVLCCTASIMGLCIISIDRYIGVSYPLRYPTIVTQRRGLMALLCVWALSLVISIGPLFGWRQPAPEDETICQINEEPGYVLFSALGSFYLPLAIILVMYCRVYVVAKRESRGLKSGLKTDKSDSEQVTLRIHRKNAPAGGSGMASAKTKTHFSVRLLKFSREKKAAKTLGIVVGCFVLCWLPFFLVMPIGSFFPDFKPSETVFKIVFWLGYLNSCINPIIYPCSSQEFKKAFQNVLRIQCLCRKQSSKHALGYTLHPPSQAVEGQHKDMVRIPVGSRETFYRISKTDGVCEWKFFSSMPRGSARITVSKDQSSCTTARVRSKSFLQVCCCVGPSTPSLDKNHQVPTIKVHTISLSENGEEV
Procedure, shortened: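 LM(tk−) membranes (stable human α1C); [3H]prazosin 0.5 nM; 37° C., 20 min; Tris-HCl 50 mM/MgCl2 1 mM/ascorbate 0.1%, pH 7.5; NSB 10 μM phentolamine; GF/B filtration.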

α2B receptor = molecular target: T2, α2B receptor (Homo sapiens, UniProt P18089); assay: Competition binding, [3H]rauwolscine, human α2B receptor
T2 construct: host or cells: LM(tk-) cells, line L-NGC-α2B
T2 sequence (P18089 1-450): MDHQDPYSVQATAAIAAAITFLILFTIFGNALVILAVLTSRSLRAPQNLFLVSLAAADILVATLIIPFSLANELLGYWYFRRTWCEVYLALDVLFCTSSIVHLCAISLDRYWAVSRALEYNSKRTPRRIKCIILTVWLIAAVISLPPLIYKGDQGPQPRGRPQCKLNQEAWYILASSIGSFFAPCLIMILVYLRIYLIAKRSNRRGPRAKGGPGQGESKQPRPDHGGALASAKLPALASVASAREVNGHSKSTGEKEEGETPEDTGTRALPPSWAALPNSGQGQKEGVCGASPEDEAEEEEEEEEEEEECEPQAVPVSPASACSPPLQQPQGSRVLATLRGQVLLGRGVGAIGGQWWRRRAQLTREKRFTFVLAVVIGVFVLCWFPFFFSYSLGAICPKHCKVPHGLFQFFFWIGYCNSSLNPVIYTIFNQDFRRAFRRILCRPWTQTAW
Source text: The protocols for these experiments are given below.
α2 Human Adrenergic Receptors:
To determine the potency of […], antagonists at the α2 receptors, LM(tk−) cell lines stably transfected with the genes encoding the α2A, α2B, and α2C receptors were used. The cell line expressing the α2A receptor is designated L-α2A, and was deposited on Nov. […] The cell line expressing the α2B receptor is designated L-NGC-α2B, and was deposited on Oct. […] The cell line expressing the α2C receptor is designated L-α2C, and was deposited on Nov. […] Cell lysates were prepared as described above (see Radioligand Binding Assays), and suspended in 25 mM glycylglycine buffer (pH 7.6 at room temperature). Equilibrium competition binding assay were performed using [3H]rauwolscine (0.5 nM), and nonspecific binding was determined by incubation with 10 μM phentolamine. The bound radioligand was separated by filtration through GF/B filters using a cell harvester.

[2] = molecular target: T3, α1B Human Adrenergic Receptor (Homo sapiens, UniProt P35368); assay: Radioligand binding, [3H]prazosin, cloned human α1B adrenergic receptor
T3 construct: The entire coding region of α1B (1563 bp); expressed in transfected cells
T3 sequence (P35368 1-520): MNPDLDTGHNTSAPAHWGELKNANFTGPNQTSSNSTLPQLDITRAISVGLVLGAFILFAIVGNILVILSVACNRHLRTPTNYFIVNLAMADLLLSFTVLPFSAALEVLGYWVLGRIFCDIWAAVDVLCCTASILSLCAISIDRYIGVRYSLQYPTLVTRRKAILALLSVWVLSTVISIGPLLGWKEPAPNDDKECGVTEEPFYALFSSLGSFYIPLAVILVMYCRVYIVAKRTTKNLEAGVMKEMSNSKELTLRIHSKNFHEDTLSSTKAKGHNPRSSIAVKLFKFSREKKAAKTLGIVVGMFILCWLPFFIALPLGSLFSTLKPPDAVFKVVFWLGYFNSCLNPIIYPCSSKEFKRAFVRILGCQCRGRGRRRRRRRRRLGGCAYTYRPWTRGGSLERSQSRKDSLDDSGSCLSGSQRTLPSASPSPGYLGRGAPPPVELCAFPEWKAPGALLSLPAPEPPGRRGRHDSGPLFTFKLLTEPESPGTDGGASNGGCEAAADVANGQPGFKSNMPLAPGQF
Procedure, shortened: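 Membranes from stably transfected LM(tk−) cells, resuspended in 50 mM Tris-HCl, 1 mM MgCl2, 0.1% ascorbic acid, pH 7.5, were incubated with 0.5 nM [3H]prazosin for 20 min at 37° C. Nonspecific binding defined with 10 μM phentolamine; bound ligand separated by GF/B filtration.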

[3] = cloned human α1C receptor, LM(tk-) cell membranes, read-out: PKi alpha-1 1c (converted)
[4] = [3H]rauwolscine, human α2B receptor, LM(tk-) cells, read-out: PKi alpha-2 2b (converted)
[5] = cloned human α1B receptor, LM(tk-) cell membranes, read-out: PKi alpha-1 1b (converted)
[6] = cloned human receptor in LM(tk-) cell membranes, SEM and n in lines below
[7] = cloned human receptor, LM(tk-) cell membranes, mean, read-out: PKi alpha-1 1c (converted)
[8] = cloned human receptor, LM(tk-) cell membranes, mean, read-out: PKi alpha-1 1b (converted)
[9] = [3H]rauwolscine, human receptor, LM(tk-) cell lysates, mean, read-out: PKi alpha-2 2b (converted)

`CCC1=C(C(=O)NN2CCOCC2)C(c2ccc([N+](=O)[O-])cc2)C(C(=O)NCCCN2CCC(c3ccccc3)(c3ccccc3)CC2)=C(COC)N1` (stereo not drawn) [Example 248, 6-Ethyl-1,4-dihydro-2-((methyl)oxy)methyl-5-N-(morpholin-4yl)carboxamido-4-(4-nitro)phenyl-3-(N-(3-(4,4-diphenylpiperidin-1-yl)propyl))carboxamidopyridine] was tested, and the Ki [1, 3] was 0.174 µM, the Ki (α2B receptor; [4]) was 1.15 µM and the Ki [2, 5] was 1.51 µM.

For `CC1=C(C(N)=O)C(c2ccc([N+](=O)[O-])cc2)C(C(=O)NC2CCN(Cc3ccccc3)CC2)=C(c2ccoc2)N1.Cl.O` (stereo not drawn) [Example 66], the “pKi alpha-1 1c” value [1, 6] was 6.59, the “pKi alpha-2 2b” value (α2B receptor; [3H]rauwolscine, LM(tk-) cell line L-NGC-α2B, SEM and n in lines below) was 5.35 and the “pKi alpha-1 1b” value [2, 6] was 5.36.

`CCNC(=O)C1=C(CC)NC(CC)=C(C(=O)NCCCN2CCC(C(=O)OCC)(c3ccccc3)CC2)C1c1ccc([N+](=O)[O-])cc1` (stereo not drawn) [Example 182, 2,6-Diethyl-1,4-dihydro-3-{N-[3-(4-ethoxycarbonyl-4-phenylpiperidin-1-yl)propyl]}carboxamido-5-(N-ethyl)carboxamido-4(4-nitrophenyl)pyridine] was tested, and the Ki [1, 7] was 0.00224 µM, the Ki (α2B receptor; PKi alpha-2 2b) was 0.912 µM and the Ki [2, 8] was 1.12 µM.

`CCC1=C(C(N)=O)C(c2ccc([N+](=O)[O-])cc2)C(C(=O)NCCCN2CCC(C(=O)OC)(c3ccccc3)CC2)=C(CCCCN)N1` (stereo not drawn) [Example 166, 2-(4-Aminobutyl)-5-carboxamido-6-ethyl-1,4-dihydro-3-{N-[3-(4-methoxycarbonyl-4-phenylpiperidin-1-yl)propyl]}carboxamido-4-(4-nitrophenyl)pyridine] showed a Ki [1, 7] of 0.00129 µM, a Ki (α2B receptor; [9]) of 3.89 µM and a Ki [2, 8] of 1.32 µM.

`CCC1=C(C(N)=O)C(c2ccc([N+](=O)[O-])cc2)C(C(=O)NCCCN2CCC(c3ccccc3)(c3ccccc3)CC2)=C(CC)N1` (stereo not drawn) [Example 120, 5-Carboxamido-2,6-diethyl-1,4-dihydro-4-(4-nitrophenyl)-3-{N-[3-(4,4-diphenylpiperidin-1-yl)propyl]} carboxamidopyridine] was tested, and the “pKi alpha-1 1c” value ([1]; cloned human α1C receptor, LM(tk−) cell membranes) was 8.97, the “pKi alpha-2 2b” value (α2B receptor; [3H]rauwolscine, human α2B receptor, LM(tk−) cells) was 6.59 and the “pKi alpha-1 1b” value ([2]; cloned human α1B receptor, LM(tk−) cell membranes) was 6.61.

For `COc1cc2c(cc1OC)CN(CCCNC(=O)C1=C(C)NC(C)=C(C(N)=O)C1c1ccc([N+](=O)[O-])cc1)CC2` (stereo not drawn) [Example 58, 5-Carboxamido-1,4-dihydro-3-{N-[3-(1,2,3,4-tetrahydro-6,7-dimethoxyisoquinolin-2-yl)propyl]}carboxamido-2,6-dimethyl-4-(4-nitrophenyl)pyridine hydrochloride], the Ki ([1]; cloned human receptor in LM(tk-) cell membranes, SEM and n in lines below, read-out: pKi alpha-1 1c (converted)) was 0.331 µM, the Ki (α2B receptor; [3H]rauwolscine, LM(tk-) cell line L-NGC-α2B, SEM and n in lines below, read-out: pKi alpha-2 2b (converted)) was 1.45 µM and the Ki ([2]; cloned human receptor in LM(tk-) cell membranes, SEM and n in lines below, read-out: pKi alpha-1 1b (converted)) was 2.29 µM.

For `COC(=O)C1(c2ccccc2)CCN(CCCNC(=O)C2=C(COCCN)NC(C)=C(C(C)=O)C2c2ccc(F)cc2)CC1` (stereo not drawn) [Example 245, 5-Acetyl-2-((2-aminoethyl)oxy)methyl-4-(4-fluoro)phenyl-1,4-dihydro-3-(N-3-(4-methoxycarbonyl-4-phenylpiperidin-1-yl)propyl)carboxamido-6-methylpyridine], the Ki [1, 3] was 0.00501 µM, the Ki (α2B receptor; [4]) was 2.75 µM and the Ki [2, 5] was 0.355 µM.

With `COC(=O)C1(c2ccccc2)CCN(CCCNC(=O)C2=C(COCCN=[N+]=[N-])NC(C)=C(C(N)=O)C2c2ccc([N+](=O)[O-])cc2)CC1` (stereo not drawn) [Example 183, 2-[(2-Azidoethoxy)methyl]-5-carboxamido-1,4-dihydro-3-{N-[3-(4-methoxycarbonyl-4-phenylpiperidin-1-yl)propyl]}carboxamido-6-methyl-4-(4-nitrophenyl)pyridine] the Ki [1, 7] was 0.000851 µM, the Ki (α2B receptor; [9]) was 0.724 µM and the Ki [2, 8] was 0.229 µM.

`CCC1=C(C(N)=O)C(c2ccc([N+](=O)[O-])cc2)C(C(=O)NCCCN2CCC(C(=O)OC)(c3ccccc3)CC2)=C(CCCCN=[N+]=[N-])N1` (stereo not drawn) [Example 165, 2-(4-Azidobutyl)-3-{N-[3-(4-methoxycarbonyl-4-phenylpiperidin-1-yl)propyl]}carboxamido-5-carboxamido-6-ethyl-1,4-dihydro-4-(4-nitrophenyl)pyridine] was tested, and the Ki [1, 7] was 0.000501 µM, the Ki (α2B receptor; [9]) was 1.95 µM and the Ki [2, 8] was 0.575 µM.
